Test results from patent US12433855B2, “Method of inhibiting gram-negative bacterial quorum signalling molecules using the macrocycle pillar[5]arene” (AALTO UNIVERSITY FOUNDATION SR, priority 2018, dated 2025).
Entries after “also recorded” stand apart in the source; their conditions may differ. Blank lines part the entries; values can stand above or below the compound they belong to.

Legend:
[1] = Binding of HSLs having carbon chains of different lengths
[2] = tested on: A549 cells; experiment: CellTox Green Cytotoxicity Assay; format: cell-based, human
Method: (§1) To assess the possible toxicity of P[5]a on the lung cells, two independent viability tests were performed. First, the viability of A549 cells grown in the presence of different concentrations of P[5]a was determined using trypan blue staining. […] Subsequently, the CellTox Green Cytotoxicity Assay (Promega) was carried out for A549 cells grown with and without P[5]a, in the presence or absence of PAO1 P. aeruginosa strain. […] This was not observed for cells grown with the addition of P[5]a in the growth medium.

[3] = tested on: A549 cells infected with P. aeruginosa; experiment: Gene expression (total RNA) of A549 cells infected with P. aeruginosa; format: cell-based, human
Method: In order to further study the influence of P[5]a on the eukaryotic cells, total RNA was isolated from A549 cells infected with P. aeruginosa in the presence or absence of 100 nM or 2.5 mM P[5]a. The expression of 46 genes were affected strongly enough to meet our stringent criteria and be considered as differentially expressed during the infection with PAO1.

[4] = tested on: A549 cells; experiment: Viability of A549 cells, trypan blue staining; format: cell-based, human; conditions: different concentrations of P[5]a, with vs without
Method: as §1

[5] = Stability and dissolution in water; format: physicochemical
[6] = tested on: Pseudomonas aeruginosa; experiment: Pyocyanin assay; format: cell-based; conditions: for production of pyocyanin: 24 hours of growth, OD695
Source text: In testing the functionality of P[5]a as an actual quorum sensing inhibitor a pathogenic Gram-negative bacterium, Pserudomonas aeruginosa, which contains the LasI synthase that produces the 3-oxo-C12 HSL, was used.
P. aeruginosa utilizes multiple quorum sensing systems (Las, Rhl and Pqs). The Las system is at the top of a cascade that leads to the activation of the other quorum sensing systems, and is directly responsible for the production of the green toxin pyocyanin. Pyocyanin is a toxin produced by Pseudomonas aeruginosa, and the production is directly activated by the 3-oxo-C12 HSL. Pyocyanin is responsible for the death of cells in the lung during cystic fibrosis. Thus, the production of this toxin is related directly to the C12 Las AHL signal in a quorum-based response.
Bacterial cells were cultured for 24 hours in Luria Broth (LB) medium with […] added. Then, the culture fluid was separated from the cells and measured at OD695 (this measures the amount of green color).
In a pyocyanin assay, the effect of varying concentrations of a P[5]a (4,9,14,19,24,26,28,30,32,34-Deca[2-(trimethylaminio)ethoxy]hexacyclo[21.2.2.2^3,6.2^8,11.2^13,16.2^18,21]pentatriaconta-1(25),3,5,8,10,13,15,18,20,23,26,28,30,32,34-pentadecaene⋅10bromide, CAS No. 1351445-28-7) on the production of pyocyanin after 24 hours of growth was studied and the results are shown in FIG. 12.

binding to N-acyl-homoserine lactones (AHLs) [1]: found to bind
Compound: O=S(=O)(O)c1cc2c(O)c(c1)Cc1cc(S(=O)(=O)O)cc(c1O)Cc1cc(S(=O)(=O)O)cc(c1O)Cc1cc(S(=O)(=O)O)cc(c1O)C2 [4-sulfocalix[4]arene, 25,26,27,28-Tetrahydroxycalix[4]arene-5,11,17,23-tetrasulfonic acid]

binding to N-acyl-homoserine lactones (AHLs) [1]: found to bind
Compound: O=C1N2CN3C(=O)N4CN5C(=O)N6CN7C(=O)N8CN9C(=O)N%10CN%11C(=O)N%12CN1C1C2N2CN%13C(=O)N(CN%14C(=O)N(CN%15C(=O)N(CN%16C(=O)N(CN%17C(=O)N(CN1C2=O)C%12C%11%17)C%10C9%16)C8C7%15)C6C5%14)C4C3%13 (stereo not shown) [cucurbit[6]uril, Cucurbit[6]uril hydrate]

More lines, now with the values behind:

Compound: C1COCCOCCOCCOCCO1 [15-crown-5, 1,4,7,10,13-Pentaoxacyclopentadecane]
binding to N-acyl-homoserine lactones (AHLs) [1]: found to bind

Compound: C[N+](C)(C)CCOc1cc2c(OCC[N+](C)(C)C)cc1Cc1cc(OCC[N+](C)(C)C)c(cc1OCC[N+](C)(C)C)Cc1cc(OCC[N+](C)(C)C)c(cc1OCC[N+](C)(C)C)Cc1cc(OCC[N+](C)(C)C)c(cc1OCC[N+](C)(C)C)Cc1cc(OCC[N+](C)(C)C)c(cc1OCC[N+](C)(C)C)C2.[Br-].[Br-].[Br-].[Br-].[Br-].[Br-].[Br-].[Br-].[Br-].[Br-] [P[5]a, 4,9,14,19,24,26,28,30,32,34-Deca[2-(trimethylaminio)ethoxy]hexacyclo[21.2.2.2^3,6.2^8,11.2^13,16.2^18,21]pentatriaconta-1(25),3,5,8,10,13,15,18,20,23,26,28,30,32,34-pentadecaene⋅10bromide]
increase in fluorescence (indicator of cell death) ([2]; A549 cells grown with P[5]a, absence of PAO1): not observed
cell death during infection with PAO1 strain ([2]; A549 cells infected with PAO1 P. aeruginosa, P[5]a in growth medium): reduction in cell death in a dose dependent manner
overexpression of differentially expressed genes during infection ([3]; 100 nM or 2.5 mM P[5]a, PAO1 infection): reduced the overexpression of many of the differentially expressed genes
expression of CXCL1, CXCL8, CCL20 and ICAM1 ([3]; 100 nM or 2.5 mM P[5]a, PAO1 infection, dose-dependent): significantly reduced
expression of adrenomodullin (ADM) and colony stimulating factor 2 (CSF2) ([3]; P[5]a added to infected A549 culture): further overexpression
viability of A549 cells (trypan blue) [4]: no significant difference
dissolution in water [5]: easily dissolved
stability [5]: very good stability
cellular growth ([6]; P. aeruginosa culture): not affected at all
production of pyocyanin ([6]; higher concentrations of P[5]a): complete inhibition; also recorded: completely inhibit toxin production
production of pyocyanin ([6]; no or low concentrations of P[5]a): no significant differences
binding to N-acyl-homoserine lactones (AHLs) [1]: found to bind
selectivity of AHL binding by chain length [1]: selectively bind long-chained N-acyl-homoserine lactones

Compound: OC[C@H]1O[C@@H]2O[C@H]3[C@H](O)[C@@H](O)[C@@H](O[C@H]4[C@H](O)[C@@H](O)[C@@H](O[C@H]5[C@H](O)[C@@H](O)[C@@H](O[C@H]6[C@H](O)[C@@H](O)[C@@H](O[C@H]7[C@H](O)[C@@H](O)[C@@H](O[C@H]1[C@H](O)[C@H]2O)O[C@@H]7CO)O[C@@H]6CO)O[C@@H]5CO)O[C@@H]4CO)O[C@@H]3CO [alpha-cyclodextrin, Alpha-cyclodextrin]
binding to N-acyl-homoserine lactones (AHLs) [1]: found to bind

Compound: OC[C@H]1O[C@@H]2O[C@H]3[C@H](O)[C@@H](O)[C@@H](O[C@H]4[C@H](O)[C@@H](O)[C@@H](O[C@H]5[C@H](O)[C@@H](O)[C@@H](O[C@H]6[C@H](O)[C@@H](O)[C@@H](O[C@H]7[C@H](O)[C@@H](O)[C@@H](O[C@H]8[C@H](O)[C@@H](O)[C@@H](O[C@H]9[C@H](O)[C@@H](O)[C@@H](O[C@H]1[C@H](O)[C@H]2O)O[C@@H]9CO)O[C@@H]8CO)O[C@@H]7CO)O[C@@H]6CO)O[C@@H]5CO)O[C@@H]4CO)O[C@@H]3CO [gamma-cyclodextrin, Gamma-cyclodextrin]
binding to N-acyl-homoserine lactones (AHLs) [1]: found to bind

Compound: Resorcin[4]arene
binding to N-acyl-homoserine lactones (AHLs) [1]: found to bind
